Patent US10781470B2, “Diagnosis and treatment of incipient diabetes” (priority 2015, dated 2020)

Tested on: stool alkaline phosphatase (AP)
Test: Stool alkaline phosphatase assay in presence of AP isoform inhibitors
Details: stool supernatant; for inhibition of the AP activity in the stool: inhibitor 10 mM, pNPP substrate
Experimental: Homogenization of stool: The supernatant of a homogenized stool suspension was used for IAP assay. A small amount of stool (milligrams) was measured and then the ‘stool dilution buffer’ (10 mM (millimolar) Tris-HCl, pH 8.0, 1 mM magnesium chloride, 10 μM (micromolar) zinc chloride) at a defined ratio was added. Usually, 50 μl (microliter) of stool dilution buffer was added to 1 mg of stool. The sample was vigorously vortexed to prepare a homogenized stool suspension, which was then centrifuged at 10,000×g for 20 min, and the supernatant containing IAP was collected and assayed for IAP concentration.
Alkaline Phosphatase Assay. The stool supernatant was assayed for alkaline phosphatase (AP) following an established protocol using the automatic biochemistry analyzer mentioned above (Nanjing, Jiangsu, China). In brief, 20 of supernatant was added to 1 ml of enzyme assay buffer (1.25 M diethanolamine (DEA) buffer, pH 10.2, 0.6 mM magnesium chloride) containing 10 mM p-nitrophenyl phosphate (pNPP), and the reaction mixture was incubated for one min at 37° C. followed by measuring the AP concentration by the analyzer pre-calibrated with AP standards. To determine the major isoform among stool APs, prior to assaying for AP activity an aliquot of stool sample was treated for 10 min with L-phenylalanine (L-Phe, 10 mM final conc.), a specific inhibitor of LAP, and another aliquot with L-homoarginine (L-Arg, 10 final conc.), an inhibitor of tissue non-specific alkaline phosphatase (TNAP). Each aliquot treated with an inhibitor was then mixed with the reaction buffer containing an equal concentration (10 mM) of the respective inhibitor, and assayed for AP activity using the analyzer. […] All AP assays were performed by a single laboratory technologist who was blinded to the diagnoses of participants. […]
Stool samples of non-diabetic healthy controls and T2DM patients were homogenized in a stool dilution buffer followed by centrifuging and collection of supernatant. […] Statistics: Values are expressed as mean+/−SEM. […]

Row | inhibition of the AP activity in the stool (total diabetic (T2DM) population) | inhibition of the AP activity in the stool (total healthy population) | Structure (SMILES) | inhibitory effect on the stool AP activity (either group (healthy controls and T2DM patients))
1 | – | – | N=C(N)NCCCC[C@H](N)C(=O)O [L-Arg, L-homoarginine] | no inhibitory effect
2 | approx. 70% | approx. 80% | N[C@@H](Cc1ccccc1)C(=O)O [L-Phe, L-phenylalanine] | –
